Measurements published in ChEMBL document CHEMBL1126059 (J Med Chem, 1992).
Where a SMILES comes first, the peptide text is derived from it. [ ]: non-standard residue; d: D form. The star is where a group is joined. Boc = CC(C)(C)OC(=O)*; OBn = c1ccc(CO*)cc1; For = O=C*

How the values were obtained:
Substance-P receptor [1] = biological target: T1, Substance-P receptor (Cavia porcellus, UniProt P30547); experiment: Displacement of specific binding of [3H]SP to tachykinin receptor 1 from the isolated guinea pig tracheal strips
T1 sequence (P30547 whole entry): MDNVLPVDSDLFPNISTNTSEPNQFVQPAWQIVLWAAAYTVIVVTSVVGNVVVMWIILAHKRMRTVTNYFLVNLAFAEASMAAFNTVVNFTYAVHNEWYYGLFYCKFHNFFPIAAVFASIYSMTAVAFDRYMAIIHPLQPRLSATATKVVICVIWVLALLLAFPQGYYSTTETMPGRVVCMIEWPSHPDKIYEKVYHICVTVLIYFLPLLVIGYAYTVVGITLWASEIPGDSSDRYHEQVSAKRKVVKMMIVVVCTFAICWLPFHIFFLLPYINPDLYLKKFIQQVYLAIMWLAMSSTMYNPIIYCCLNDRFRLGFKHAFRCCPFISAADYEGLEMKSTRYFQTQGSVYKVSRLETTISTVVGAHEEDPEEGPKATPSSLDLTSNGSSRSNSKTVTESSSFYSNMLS

Substance-P receptor [2] = biological target: T1, Substance-P receptor; experiment: In vitro inhibitory concentration that gave 50% displacement of specific binding of [3H]SP to Tachykinin receptor 1 from the isolated guinea pig tracheal strips; No inhibition at 10E-4 M.

IC50 (Substance-P receptor [1]) | IC50 (Substance-P receptor [2]) | SMILES
38700 nM | – | CC(C)(C)OC(=O)N[C@@H](CCC(N)=O)C(=O)N[C@H](Cc1c[nH]c2ccccc12)C(=O)N[C@@H](Cc1ccccc1)C(N)=O
770 nM | – | CC(C)(C)OC(=O)N[C@@H](CCC(N)=O)C(=O)N[C@H](Cc1cn(C=O)c2ccccc12)C(=O)N[C@H](Cc1ccccc1)C(=O)OCc1ccccc1
550 nM | – | CC(C)(C)OC(=O)N[C@@H](CCC(N)=O)C(=O)N[C@H](Cc1c[nH]c2ccccc12)C(=O)N[C@@H](Cc1ccccc1)C(=O)OCc1ccccc1
260 nM | – | CC(C)(C)OC(=O)N[C@@H](Cc1ccc(O)cc1)C(=O)N[C@H](Cc1cn(C=O)c2ccccc12)C(=O)N[C@@H](Cc1ccccc1)C(=O)OCc1ccccc1
10000 nM | – | O=C(N[C@H](Cc1c[nH]c2ccccc12)C(=O)N[C@@H](Cc1ccccc1)C(=O)N[C@H](Cc1c[nH]c2ccccc12)C(=O)OCc1ccccc1)OCc1ccccc1
> 100000 nM | – | NC(=O)[C@@H](Cc1c[nH]c2ccccc12)NC(=O)[C@H](Cc1ccccc1)NC(=O)[C@@H](Cc1c[nH]c2ccccc12)NC(=O)OCc1ccccc1
420 nM | – | CC(C)(C)OC(=O)NCC(=O)N[C@H](Cc1cn(C=O)c2ccccc12)C(=O)N[C@@H](Cc1ccccc1)C(=O)OCc1ccccc1
100000 nM | – | O=C(N[C@@H](Cc1ccccc1)C(=O)N[C@H](Cc1c[nH]c2ccccc12)C(=O)N[C@H](Cc1c[nH]c2ccccc12)C(=O)OCc1ccccc1)OCc1ccccc1
23800 nM | – | O=C(N[C@H](Cc1c[nH]c2ccccc12)C(=O)N[C@@H](Cc1ccccc1)C(=O)N[C@H](Cc1c[nH]c2ccccc12)C(=O)O)OCc1ccccc1
> 100000 nM | – | CC(C)(C)OC(=O)N[C@@H](CCC(N)=O)C(=O)N[C@H](Cc1c[nH]c2ccccc12)C(=O)N[C@@H](Cc1ccccc1)C(=O)O
1000 nM | – | CC(C)(C)OC(=O)N[C@@H](CCC(N)=O)C(=O)N[C@@H](Cc1ccccc1)C(=O)N[C@@H](Cc1ccccc1)C(=O)OCc1ccccc1
90 nM | – | CC(C)(C)OC(=O)N[C@@H](CCC(N)=O)C(=O)N[C@H](Cc1cn(C=O)c2ccccc12)C(=O)N[C@@H](Cc1ccccc1)C(=O)OCc1ccccc1
360 nM | – | CC(C)(C)OC(=O)N[C@@H](CCC(N)=O)C(=O)N[C@@H](Cc1cn(C=O)c2ccccc12)C(=O)N[C@@H](Cc1ccccc1)C(=O)OCc1ccccc1
110 nM | – | CC(C)(C)OC(=O)N[C@@H](CO)C(=O)N[C@H](Cc1cn(C=O)c2ccccc12)C(=O)N[C@@H](Cc1ccccc1)C(=O)OCc1ccccc1 (Boc-Ser-[dW](For)-Phe-OBn)
> 100000 nM | – | O=C(N[C@@H](Cc1ccccc1)C(=O)N[C@H](Cc1c[nH]c2ccccc12)C(=O)N[C@H](Cc1c[nH]c2ccccc12)C(=O)O)OCc1ccccc1
> 100000 nM | – | CC(C)(C)OC(=O)N[C@H](Cc1c[nH]c2ccccc12)C(=O)N[C@H](Cc1c[nH]c2ccccc12)C(=O)N[C@@H](Cc1ccccc1)C(=O)OCc1ccccc1
110 nM | – | C[C@@H](O)[C@H](NC(=O)OC(C)(C)C)C(=O)N[C@H](Cc1cn(C=O)c2ccccc12)C(=O)N[C@@H](Cc1ccccc1)C(=O)OCc1ccccc1 (Boc-Thr-[dW](For)-Phe-OBn)
380 nM | – | CC(C)(C)OC(=O)N[C@@H](CCC(N)=O)C(=O)N[C@H](Cc1ccccc1)C(=O)N[C@@H](Cc1ccccc1)C(=O)OCc1ccccc1

The next lines start with the molecule.

SMILES | IC50 (Substance-P receptor [1]) | IC50 (Substance-P receptor [2])
CC(C)(C)OC(=O)N[C@@H](CCC(N)=O)C(=O)N[C@H](Cc1cn(C=O)c2ccccc12)C(=O)N1C(C(=O)c2ccccc2)CC[C@H]1C(=O)OCc1ccccc1 (stereo not given in full) | 450 nM | –
CC(C)(C)OC(=O)N[C@@H](CCC(N)=O)C(=O)N[C@H](Cc1cn(C=O)c2ccccc12)C(=O)N1CCC[C@H]1C(=O)OCc1ccccc1 | – | Not Active
CC(C)(C)OC(=O)N[C@@H](CCC(N)=O)C(=O)N[C@H](Cc1cn(C=O)c2ccccc12)C(=O)N[C@@H](Cc1ccccc1)C(=O)OCCc1ccccc1 | 500 nM | –
O=C1CC[C@@H](C(=O)N[C@H](Cc2c[nH]c3ccccc23)C(=O)N[C@@H](Cc2ccccc2)C(=O)O)N1 | > 100000 nM | –
CC(C)(C)OC(=O)N[C@@H](CCC(N)=O)C(=O)N[C@H](Cc1cn(C=O)c2ccccc12)C(=O)N[C@@H](Cc1ccc(O)cc1)C(=O)OCc1ccccc1 | 390 nM | –
NC(=O)CC[C@H](NC(=O)[C@H](CCC(N)=O)NC(=O)[C@H]1CCCN1)C(=O)O | > 100000 nM | –
CC(C)(C)OC(=O)N[C@@H](CCC(N)=O)C(=O)N[C@H](Cc1cn(C=O)c2ccccc12)C(=O)N[C@@H](Cc1ccccc1)C(=O)OCc1ccc(Cl)cc1 | 1000 nM | –
NC(=O)CC[C@H](N)C(=O)N[C@H](Cc1cn(C=O)c2ccccc12)C(=O)N[C@@H](Cc1ccccc1)C(=O)OCc1ccccc1 | 210 nM | –
CN(C(=O)[C@@H](Cc1cn(C=O)c2ccccc12)NC(=O)[C@H](CCC(N)=O)NC(=O)OC(C)(C)C)[C@@H](Cc1ccccc1)C(=O)OCc1ccccc1 | 240 nM | –
CC(C)(C)OC(=O)N[C@@H](CCC(N)=O)C(=O)N[C@H](Cc1cn(C=O)c2ccccc12)C(=O)NCC(=O)OCc1ccccc1 | – | Not Active
CC(C)C[C@@H](NC(=O)[C@H](CCC(N)=O)NC(=O)OC(C)(C)C)C(=O)N[C@@H](Cc1ccccc1)C(=O)OCc1ccccc1 | 1000 nM | –
NC(=O)CC[C@H](NC(=O)[C@H]1CCCN1C(=O)OCc1ccccc1)C(=O)N[C@@H](CCC(N)=O)C(=O)OCc1ccccc1 | 10000 nM | –
NC(=O)CC[C@H](NC(=O)[C@H](CCC(N)=O)NC(=O)[C@H]1CCCN1)C(=O)N[C@H](Cc1c[nH]c2ccccc12)C(=O)N[C@@H](Cc1ccccc1)C(=O)N[C@H](Cc1c[nH]c2ccccc12)C(=O)N[C@H](Cc1c[nH]c2ccccc12)C(=O)N[C@@H](Cc1ccccc1)C(N)=O | 600 nM | –
NC(=O)CC[C@H](NC(=O)[C@@H]1CCC(=O)N1)C(=O)N[C@H](Cc1c[nH]c2ccccc12)C(=O)O | > 100000 nM | –
CSCC[C@@H](NC(=O)[C@H](CCC(N)=O)NC(=O)OC(C)(C)C)C(=O)N[C@@H](Cc1ccccc1)C(=O)OCc1ccccc1 | 790 nM | –
CC(C)[C@H](NC(=O)[C@@H](Cc1cn(C=O)c2ccccc12)NC(=O)[C@H](CCC(N)=O)NC(=O)OC(C)(C)C)C(=O)OCc1ccccc1 | – | Not Active
CC(C)(C)OC(=O)N[C@@H](CCC(N)=O)C(=O)N[C@H](Cc1cn(C=O)c2ccccc12)C(=O)N[C@@H](Cc1ccccc1)C(=O)O | > 100000 nM | –
CC(C)(C)OC(=O)N1CCC[C@@H]1C(=O)N[C@@H](CCC(N)=O)C(=O)N[C@@H](CCC(N)=O)C(N)=O | > 100000 nM | –
CC(C)(C)OC(=O)N1CCC[C@@H]1C(=O)N[C@@H](CCC(N)=O)C(=O)N[C@@H](CCC(N)=O)C(=O)OCc1ccccc1 | 100000 nM | –
NC(=O)CC[C@H](NC(=O)OCc1ccccc1)C(=O)N[C@@H](CCC(N)=O)C(=O)N[C@H](Cc1c[nH]c2ccccc12)C(=O)O | > 100000 nM | –
CC(C)(C)OC(=O)N[C@@H](CCC(N)=O)C(=O)N[C@H](Cc1cn(C=O)c2ccccc12)C(=O)N1Cc2ccccc2CC1C(=O)OCc1ccccc1 (stereo not given in full) | 140 nM | –
CC(C)(C)OC(=O)N[C@@H](CCC(N)=O)C(=O)N[C@H](Cc1cn(C=O)c2ccccc12)C(=O)N[C@@H](Cc1ccccc1)C(=O)OCC1CCCCC1 | 400 nM | –
